Laboratory results reported in patent publication US8232253B2, “Treatment of lung cancer” (Ramot at Tel-Aviv University Ltd., priority 2006, dated 2012).

What was measured:
Rac1-GTP = Rac1-GTP pull-down assay in A549 cells; assay type: cell-based, human
Experimental: A549 cells were incubated for 24 or 48 h with or without FTS, as described above, and then lysed with lysis buffer as described in Haklai, R., Gana-Weisz, M., Elad, G., et al., Biochemistry 37:1306-14 (1998). The apparent amounts of K-Ras-GTP in 0.5 mg protein of total cell lysates were determined by the glutathione-S-transferase (GST)-RBD (Ras-binding domain of Raf) pull-down assay, as described in (Elad-Sfadia, G., Haklai, R., Ballan, E., Gabius, H. J., Kloog, Y., J Biol Chem 277:37169-75 (2002). The apparent amounts of Rac1-GTP and of RhoA-GTP, each in 2 mg protein of total cell lysates, were determined, respectively, by pull-down assays with GST-PBD (Rac1-binding domain of PAK1)-conjugated and GST-Rhotekin BD (Rho-binding domain of Rhotekin)-conjugated beads [Benard, V., Bohl, B. P., Bokoch, G. M, J Biol Chem 274:13198-204 (1999); Fiordalisi, J. J., Keller, P. J., Cox, A. D., Cancer Res 66:3153-61 (2006). […] Levels of phospho-ERK and phospho-Akt were determined by immunoblotting [Haklai, R., Gana-Weisz, M., Elad, G., et al., supra.] using rabbit anti phospho-ERK1/2 Ab (Santa Cruz Biotechnology, Santa Cruz, Calif.) and rabbit anti phospho-Akt Ab (Cell Signaling, Beverly, Mass.). Protein bands were visualized by enhanced chemiluminescence and quantified by densitometry using ImageJ computer software (National institutes of Health, Bethesda, Md.). […]

[1] = system: human lung cancer cell lines A549, H23, HTB54, H-1299, HTB-58 (SK-MES-1); assay: Growth inhibition of human lung cancer cell lines by direct cell counting; assay type: cell-based; conditions: range over A549, H23, HTB54, H-1299, HTB-58 (SK-MES-1), read-out: IC50 of growth inhibition, depending on the cell line
Experimental: FTS was provided by Concordia Pharmaceuticals, Inc. (Ft. Lauderdale, Fla.). All cell lines were obtained from American Type Culture Collection (“ATCC”) (Manassas, Va.). A549 cells, non-small-cell lung carcinoma (CCL, ATCC) cells, were cultured in Kaighn's modification of Ham's F-12 medium containing 1.5 g/l sodium bicarbonate, 10% fetal calf serum (FCS), 100 U/ml penicillin, and 100 μg/ml streptomycin. HTB54 lung carcinoma cells were cultured in McCoy's 5A medium with 10% FCS, 100 U/ml penicillin, and 10 μg/ml streptomycin. HTB-58 (SK-MES-1, ATCC), a human lung squamous cell carcinoma cell line, was cultured in Eagle's minimum essential medium with 2 mM L-glutamine and Earle's BSS, 1.5 g/l sodium bicarbonate, 0.1 mM non-essential amino acids, 1 mM sodium pyruvate, 10% FCS, 100 U/ml penicillin, and 100 μg/ml streptomycin. […] Cells were treated with the indicated concentrations of FTS (Concordia Pharmaceuticals, Sunrise Fla.) or with 0.1% Me2SO4 (DMSO) (vehicle) 24 h after plating and were counted 5 days later. Dead cells were counted after addition of Hoechst 33258 dye (Sigma-Aldrich, St. Louis, Mo.); 1 μg/ml) to vehicle-treated control cultures or to cultures treated for 24 or 48 h with 75 μM FTS. Fluorescence images were collected 5 min after the dye was added. […]

## CC(C)=CCC/C(C)=C/CC/C(C)=C/CSc1ccccc1C(=O)O [FTS, S-farnesylthiosalicylic acid]
Rac1-GTP
  effect on the amount of active Rac1-GTP: no effect
[1]
  IC50: 30 to 75 µM
